# Patent US20140088000A1, “Leptin Rescues Neurons from Alzheimer's Disease Related Pathways Triggered by Lipid Burden” (Neurotez, Inc., priority 2012, published 2014)
# Legend:
# [1] = transgenic model of AD; cited from earlier work
# sirtuins (SIRT) = experiment: SIRT (total sirtuin) activity assay in lysates of treated RA-SY5Y cells (nicotinamide-sensitive deacetylase activity); type: cell-based, human; details: Leptin 100 ng/mL, 6 h, with ceramide, cholesterol or oleic acid, FIG. 2B
# Description: (§1) RA-SY5Y were treated with Leptin (100 ng/ml) in the presence of ceramide (25 μM), cholesterol (27.5 μg/mL), oleic acid (30 μg/mL) or vehicle (MβCD—675 μg/mL; or DMSO—0.125%) for 6 h, and then harvested by scraping. Preparation of whole cell lysates from cell pellets was performed as described previously (32).
# “Total sirtuin”, hereafter termed “SIRT’, activity in cell lysates was determined using the HDAC Fluorimetric Cellular Activity Assay Kit (Enzo Life Sciences; Plymouth Meeting, Pa.), according to manufacturer's specified guidelines. Briefly, SIRT activity is defined as nicotinamide-sensitive deacetylase (class III HDAC) activity in cell lysates. 5 mM nicotinamide was identified by the manufacturer as a dose in which there was no further reduction in deacetylase activity upon increasing concentration. RA-SY5Y cell lysates were incubated in the presence or absence of 5 mM nicotinamide, and SIRT activity determined by adding the Flour de Lys Substrate for deacetylation followed by exposure to the Fluor de Lys Developer to generate a fluorescent signal for detection using a fluorimeter (EX−350-380 nm/Em440-460 nm). Normalized SIRT activity was measured in units of fluorescence intensity (Fi) and defined as: (Filysate−Filysate+nicotinamide)/μg proteinlysate. […]
# [2] = test system: AMP-activated protein kinase (AMPK); experiment: AMPK activity assay in lysates of treated RA-SY5Y cells (CycLex kit, Compound C-sensitive kinase activity); type: cell-based, human; details: 6 h, FIG. 2A
# Description: as §1
# AMPK activity in RA-SY5Y cell lysates was determined using the CycLex AMPK Kinase Assay Kit (MBL International; Woburn, Mass.), as previously described (33, 34). Briefly, “relative AMPK activity”, hereafter referred to as “AMPK activity”, is defined as Compound C-sensitive protein kinase activity in cell lysates. […] Lysates were incubated in the presence or absence of 10 μM Compound C, and protein kinase activity determined by measuring phosphorylation of the Insulin Receptor Substrate-I (IRS-1) through immunoassay and conversion of a chromogenic substrate at an absorbance of 450 nm (Ai50). […]
# We have previously shown that Leptin regulates AD pathways via activation of the cellular energy sensors, AMP-activated protein kinase (AMPK) and the sirtuins (SIRT) in neuronal cells (35, 36). To this end, we determined whether Leptin has the ability to attenuate these effects on cellular energetics in an acute model of metabolic stress (FIG. 2). […]
# Aβ = details: neurons; cited from earlier work
# tau = experiment: Phospho-tau (pThr231, pSer396) and total tau ELISA in RA-SY5Y lysates; type: cell-based, human; details: 6 h, FIG. 3; for effect of lipid insult on tau phosphorylation (pTau231, pTau396): no Leptin, normalized to total tau
# Description: as §1
# Aβ(1-40) levels in cell culture media from SY5YAPP751 cells treated for 18 h with the aforementioned metabolic insults in the presence or absence of Leptin, were determined using the Human βAmyloid 1-40 ELISA kit (Invitrogen; Carlsbad, Calif.), and phospho- and total tau levels in RASY5Y lysates were determined using the Human Tau pSer396, pThr231 and Total Tau ELISA kits (Invitrogen) according to manufacturer's specific instructions. Aβ(1-40), phosho- and total tau levels were calculated from a standard curve developed with OD at 450 nm using 8 serial dilutions of known concentration.
# Metabolic stress has been linked to the activation of AD pathological pathways, with lipids known to play an important role (21-23). We therefore investigated the extent to which lipids can induce hyperphosphorylation of tau (FIG. 3) and AP production (FIG. 4) in neuronal cells, and determined whether Leptin could prevent these effects. Utilizing similar lipid doses as previous experiments, RA-SY5Y were treated for 6 h with Leptin (100 ng/mL) or control in the presence or absence of ceramide, cholesterol or oleic acid, and phosphorylation of tau at two different epitopes, pTau231 (FIG. 3A) or pTau396 (FIG. 3B), as well as total tau measured by ELISA.
# [3] = mice having mutations on the ob gene, administration of leptin; cited from earlier work
# RA-SY5Y cells = experiment: Cell viability assay (Cell-Titer Blue) during lipid/metabolic insult; type: cell-based, human
# Description: The human neuroblastoma cell line, SH-SY5Y, was purchased from ATCC. Cell culture was performed according to manufacturer's specific guidelines. Cells were propagated in MEM containing 10% FBS. Neuronal differentiation was performed as described previously (32).
# RA-SY5Y, at 2×10^4 cells/well, were seeded in 96-well microplates and treated for 48 h with a range of concentrations of MβCD, DMSO, ceramide, cholesterol or oleic acid to determine effective doses for 50-70% viability (data not shown), or in the presence of a range of concentrations of Leptin to determine effective doses to prevent cell death. Viability was assessed using the Cell-Titer Blue Viability Assay (Promega) by adding 20 μL of the reagent to each well for 4 h, and plates read by a microplate reader with fluorescence capabilities at Ex530-570 nm/Em580-620 nm. Viability was determined using a standard curve of known cell number and plotted as a percent of non-treated or vehicle control.
# Doses of the lipids which decreased neuronal viability by 25-50% (Ceramide—25 μM; Cholesterol—27.5 μg/mL and Oleic Acid—30 μg/mL) after 18 h treatment (data not shown) were used to determine whether co-treatment with Leptin, an important modulator of lipid homeostasis, could attenuate the toxic effects of the insults (FIG. 1). RA-SY 5Y were treated for 18 h with either a low (10 ng/mL; gray bars) or moderate (100 ng/mL; black bars) dose of Leptin or control (white bars) in the presence or absence of ceramide, cholesterol or oleic acid, and cell viability measured. All lipid insults induced a significant (p<0.05) decrease in cell viability in the range of 35±15% when treated with control alone.
# Aβ(1-40) = experiment: Extracellular Aβ(1-40) ELISA in culture media of SY5Y cells stably over-expressing human APP751; type: cell-based; details: Leptin 100 ng/mL, 18 h, SY5Y APP751, with ceramide, cholesterol or oleic acid; FIG. 4
# Description: To generate SY5Y stably over-expressing amyloid precursor protein (APP), cells were transfected with a mammalian expression vector encoding the 751 amino acid isoform of human APP (APP751—Accession #NM 201413) (Origene Technologies; Rockville, Md.) using the FuOENE HD transfection reagent, according to manufacturer's specific instructions (Promega; Madison, Wis.). Briefly, cells were transiently transfected with APP751 or vehicle for 48 h and then switched into selection medium containing a concentration range of the antibiotic 0418 (100-600 μg/mL) to determine the optimal dose for stable selection. Selection media was changed every 3 days to remove non-viable cells. After 3 weeks, 200 μg/mL 0418 yielded distinct colonies while all vehicle-transfected cells were non-viable. […] Aβ(1-40) levels in cell culture media from SY5YAPP751 cells treated for 18 h with the aforementioned metabolic insults in the presence or absence of Leptin, were determined using the Human βAmyloid 1-40 ELISA kit (Invitrogen; Carlsbad, Calif.), and phospho- and total tau levels in RASY5Y lysates were determined using the Human Tau pSer396, pThr231 and Total Tau ELISA kits (Invitrogen) according to manufacturer's specific instructions. Aβ(1-40), phosho- and total tau levels were calculated from a standard curve developed with OD at 450 nm using 8 serial dilutions of known concentration. […]
Compound,cognitive performance [1],tau phosphorylation and Aβ production [1],SIRT activity under lipid insult with Leptin (sirtuins (SIRT)),"AMPK activity under lipid insult with Leptin ([2]; Leptin 100 ng/mL, with ceramide, cholesterol or oleic acid)",amount of Aβ secreted into the medium (Aβ),"tau hyperphosphorylation under lipid insult with Leptin (tau; Leptin 100 ng/mL simultaneous treatment, oleic acid insult (far right group))",reduction of body weight [3],"cell viability under lipid insult, low dose Leptin (RA-SY5Y cells; Leptin 10 ng/mL, 18 h, with ceramide, cholesterol or oleic acid, FIG. 1)","cell viability under lipid insult, moderate dose Leptin (RA-SY5Y cells; Leptin 100 ng/mL, 18 h, with ceramide, cholesterol or oleic acid, FIG. 1)","cell viability under lipid insult, high dose Leptin (RA-SY5Y cells; Leptin 1000 ng/mL, versus 100 ng/mL group, data not shown)",extracellular Aβ(1-40) levels under lipid insult with Leptin (Aβ(1-40)),"effect of lipid insult on AMPK activity ([2]; cholesterol 27.5 μg/mL, no Leptin)","effect of lipid insult on tau phosphorylation (pTau231, pTau396) (tau)"
Leptin: recombinant human Leptin purchased from Sigma-Aldrich; adipocyte-derived helical protein hormone,improves cognitive performance,reduces both tau phosphorylation and Aβ production,"significantly (p<0.05) boost both AMPK and SIRT activity in response to all lipid insults, with the exception of ceramide for SIRT",significantly (p<0.05) boost both AMPK and SIRT activity in response to all lipid insults,reduces the amount of Aβ secreted into the medium in a time- and dose-dependent fashion,significantly (p<0.05) prevented this hyperphosphorylation,30%,significantly (p<0.05) improve viability only in response to the cholesterol insult,significantly (p<0.05) improved viability in response to all challenges,not significantly (p>0.05) different from the moderate group's viability,significantly (p<0.05) reduced Aβ(1-40) levels as similar to control,–,–
"CC(C)CCC[C@@H](C)[C@H]1CC[C@H]2[C@@H]3CC=C4C[C@@H](O)CC[C@]4(C)[C@H]3CC[C@]12C [Cholesterol, cholesterol, reference compound]",–,–,–,–,–,–,–,–,–,–,–,significantly (p<0.05) suppress,induced significant (p<0.05) increases in tau phosphorylation at either epitope
"CCCCCCCC/C=C\CCCCCCCC(=O)O [Oleic Acid, oleic acid]",–,–,–,–,–,–,–,–,–,–,–,–,induced significant (p<0.05) increases in tau phosphorylation at either epitope
